# Test results reported in patent publication US11981686B2, “Urea compound having substituent” (DAIICHI SANKYO COMPANY, LIMITED, priority 2019, dated 2024).
# Molecular target: SIRT6 enzyme (Homo sapiens, UniProt Q8N6T7)
# Test: Measurement of deacetylation activity (SIRT6, AlphaLISA, H3K9(Ac) peptide)
# Type: biochemical
# Conditions: SIRT6 25 ng/mL, H3K9(Ac) biotin peptide 2 nM, NAD 10 μM, room temperature 30 minutes, duplicate
# Outline: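 SIRT6 (25 ng/mL final) in Tris-HCl pH 8.0 buffer with compound (e.g. 0.046–100 μM final) reacted with biotin-H3K9(Ac) peptide (2 nM) and NAD+ (10 μM), 30 min, room temperature. Stopped with nicotinamide plus AlphaLISA anti-unmodified H3K9/K27 beads, 60 min; EC150 (150% relative activity) from sigmoidal fit.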
# SIRT6 enzyme, sequence (Q8N6T7 whole entry, species assumed): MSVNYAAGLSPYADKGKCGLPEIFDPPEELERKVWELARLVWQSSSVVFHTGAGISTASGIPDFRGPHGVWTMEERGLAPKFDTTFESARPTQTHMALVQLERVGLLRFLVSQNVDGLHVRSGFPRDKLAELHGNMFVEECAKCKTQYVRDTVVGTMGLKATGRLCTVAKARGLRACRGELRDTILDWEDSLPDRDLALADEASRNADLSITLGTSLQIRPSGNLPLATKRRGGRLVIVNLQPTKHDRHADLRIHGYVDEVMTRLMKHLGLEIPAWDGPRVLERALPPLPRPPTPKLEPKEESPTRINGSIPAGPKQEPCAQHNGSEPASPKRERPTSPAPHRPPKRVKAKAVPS
row,SMILES,EC150 (the concentration of the compound showing a relative enzyme activity of 150%)
1,"COc1ccc2oc(N3Cc4sc(NC(=O)NCC(C)(C)O)nc4CC3(C)C)nc2c1 [Example 190, N-(2-hydroxy-2-methylpropyl)-N′-[5-(5-methoxy-1,3-benzoxazol-2-yl)-6,6-dimethyl-4,5,6,7-tetrahydro[1,3]thiazolo[5,4-c]pyridin-2-yl]urea]",1.7 μm
2,O=C(Nc1nc2c(s1)[C@@H]1COC[C@H](C2)N1c1cc(-c2ccc(F)cc2)on1)N[C@@H]1CCOC1 [Example 155],0.51 μm
3,"CNC(=O)Nc1nc2c(s1)[C@H]1CN(C(=O)C(C)C)C[C@@H](C2)N1c1nc(-c2ccc(F)cc2)no1 [Example 125, N-[(4R,8R)-10-[3-(4-fluorophenyl)-1,2,4-oxadiazol-5-yl]-6-(2-methylpropanoyl)-4,5,6,7,8,9-hexahydro-4,8-epimino[1,3]thiazolo[5,4-d]azocin-2-yl]-N′-methylurea]",2.4 μm
4,"CC(C)(CO)NC(=O)Nc1nc2c(s1)[C@@H]1COC[C@H](C2)N1c1ncc(-c2cccc(C(F)F)c2)o1 [Example 69, N-[(4S,8S)-10-{5-[3-(difluoromethyl)phenyl]-1,3-oxazol-2-yl}-4,7,8,9-tetrahydro-5H-4,8-epiminooxocino[5,4-d][1,3]thiazol-2-yl]-N′-(1-hydroxy-2-methylpropan-2-yl)urea]",0.59 μm
5,"CNC(=O)Nc1nc2c(s1)C1CN(C(C)=O)CC(C2)N1c1nc2cc(F)ccc2o1 (stereo not shown) [Example 130, N-[6-acetyl-10-(5-fluoro-1,3-benzoxazol-2-yl)-4,5,6,7,8,9-hexahydro-4,8-epimino[1,3]thiazolo[5,4-d]azocin-2-yl]-N′-methylurea]",3.7 μm
6,"CNC(=O)Nc1nc2c(s1)C1CN(C(=O)OC)CC(C2)N1c1nnc(-c2cccc(C(=O)C3CC3)c2)o1 (stereo not shown) [Example 123, Methyl 10-{5-[3-(cyclopropanecarbonyl)phenyl]-1,3,4-oxadiazol-2-yl}-2-[(methylcarbamoyl)amino]-4,7,8,9-tetrahydro-4,8-epimino[1,3]thiazolo[5,4-d]azocine-6(5H)-carboxylate]",0.66 μm
7,"CNC(=O)Nc1nc2c(s1)C1COCC(C2)N1c1nc(-c2cccc(C(=O)C3CC3)c2)no1 (stereo not shown) [Example 112, N-(10-{3-[3-(cyclopropanecarbonyl)phenyl]-1,2,4-oxadiazol-5-yl}-4,7,8,9-tetrahydro-5H-4,8-epiminooxocino[5,4-d][1,3]thiazol-2-yl)-N′-methylurea]",1.4 μm
8,"CNC(=O)Nc1nc2c(s1)[C@@H]1COC[C@H](C2)N1c1nnc(-c2cccc(OC)c2)o1 [Example 120, N-{(4S,8S)-10-[5-(3-methoxyphenyl)-1,3,4-oxadiazol-2-yl]-4,7,8,9-tetrahydro-5H-4,8-epiminooxocino[5,4-d][1,3]thiazol-2-yl}-N′-methylurea]",2.4 μm
9,"C[C@H](CO)NC(=O)Nc1nc2c(s1)[C@@H]1COC[C@H](C2)N1c1nc2cc(Cl)ccc2o1 [Example 59, N-[(4S,8S)-10-(5-chloro-1,3-benzoxazol-2-yl)-4,7,8,9-tetrahydro-5H-4,8-epiminooxocino[5,4-d][1,3]thiazol-2-yl]-N′-[(2R)-1-hydroxypropan-2-yl]urea]",0.44 μm
10,"O=C(Nc1nc2c(s1)C1COCC(C2)N1c1nc(-c2ccc(F)cc2)no1)N[C@H]1C[C@H](CO)C1 (stereo partly shown) [Example 84, N-{10-[3-(4-fluorophenyl)-1,2,4-oxadiazol-5-yl]-4,7,8,9-tetrahydro-5H-4,8-epiminooxocino[5,4-d][1,3]thiazol-2-yl}-N′-[(1r,3r)-3-(hydroxymethyl)cyclobutyl]urea]",0.62 μm
11,"O=C(Nc1nc2c(s1)[C@@H]1COC[C@H](C2)N1c1ncc(-c2cccc(OC(F)F)n2)o1)NC1CCS(=O)(=O)CC1 [Example 180, N-[(4S,8S)-10-{5-[6-(difluoromethoxy)pyridin-2-yl]-1,3-oxazol-2-yl}-4,7,8,9-tetrahydro-5H-4,8-epiminooxocino[5,4-d][1,3]thiazol-2-yl]-N′-(1,1-dioxo-1λ^6 thian-4-yl)urea]",0.14 μm
12,"CC(C)(O)CNC(=O)Nc1nc2c(s1)[C@@H]1COC[C@H](C2)N1c1nc2cc(C#N)c(F)cc2o1 [Example 55, N-[(4S,8S)-10-(5-cyano-6-fluoro-1,3-benzoxazol-2-yl)-4,7,8,9-tetrahydro-5H-4,8-epiminooxocino[5,4-d][1,3]thiazol-2-yl]-N′-(2-hydroxy-2-methylpropyl)urea]",2.3 μm
13,"C[C@@H](CO)NC(=O)Nc1nc2c(s1)[C@@H]1COC[C@H](C2)N1c1ncc(-c2cccc(C(F)F)c2)o1 [Example 168, N-[(4S,8S)-10-{5-[3-(difluoromethyl)phenyl]-1,3-oxazol-2-yl}-4,7,8,9-tetrahydro-5H-4,8-epiminooxocino[5,4-d][1,3]thiazol-2-yl]-N′-[(2S)-1-hydroxypropan-2-yl]urea]",0.35 μm
14,O=C(NCC(F)(F)F)Nc1nc2c(s1)C1COCC(C2)N1c1nnc(-c2cccc(C(=O)C3CC3)c2)o1 (stereo not shown) [Example 114],2.4 μm
15,"C[C@@H](O)CNC(=O)Nc1nc2c(s1)[C@@H]1COC[C@H](C2)N1c1cc(-c2ccc(F)cc2)on1 [Example 65, N-{(4S,8S)-10-[5-(4-fluorophenyl)-1,2-oxazol-3-yl]-4,7,8,9-tetrahydro-5H-4,8-epiminooxocino[5,4-d][1,3]thiazol-2-yl}-N′-[(2R)-2-hydroxypropyl]urea]",2.1 μm
16,"CNC(=O)Nc1nc2c(s1)[C@H]1CN(C(=O)OC)C[C@@H](C2)N1c1nc(-c2ccc(F)cc2)no1 (relative stereo) [Example 24, (−)-Methyl (4R*,8R*)-10-[3-(4-fluorophenyl)-1,2,4-oxadiazol-5-yl]-2-[(methylcarbamoyl)amino]-4,7,8,9-tetrahydro-4,8-epimino[1,3]thiazolo[5,4-d]azocine-6(5H)-carboxylate]",0.19 μm
